How the values were obtained:
[1] = Tolerability in the acute in vivo study (7 consecutive days, oral b.i.d.)
Source text: [VIII] Embodiments can include any one or more of the following advantages. […] Selective inhibition of the cleavage of APP relative to that of the Notch receptor is believed to minimize certain unwanted side effects, such as lymphopoiesis and intestinal cell differentiation. […] This is an indication that there could be a minimization of side effects with these types of compounds
(§1) A preliminary acute efficacy study in 6-month-old female hAPPSL transgenic (Tg) mice (Rockenstein, E., Mallory, M., Mante, M., Sisk, A., and Masliah, E. (2001) J Neurosci Res 66, 573-582) was completed on the compound of Example 1. Mice were treated orally (b.i.d.) with two doses, 50 mg/kg (n=4) and 100 mg/kg (n=4) for 7 consecutive days. […] Human Aβ38, Aβ40 and Aβ42 levels were determined in the cortex, hippocampus, and cerebral spinal fluid (CSF) by an immunosorbent assay.

[2] = tested on: Human Aβ38, Aβ40 and Aβ42 levels; assay: Acute in vivo efficacy study in hAPPSL transgenic mice (Aβ levels by immunosorbent assay); settings: 6-month-old female hAPPSL Tg mice, oral b.i.d. 50 and 100 mg/kg, 7 consecutive days
Procedure: as §1

[3] = hAPPSL Tg mice, oral b.i.d. 50 and 100 mg/kg, 7 consecutive days

Row | melting point [°C] | SMILES | other results
1 | – | CC[C@@H](c1ccccc1)N(Cc1ccc(C(=O)O)cc1)S(=O)(=O)c1ccc(Cl)cc1 [Example 1, (S)-4-((4-Chloro-N-(1-phenylpropyl)phenylsulfonamido)methyl)benzoic acid] | Toxicity in in vivo efficacy study ([1]; 100 mg/kg b.i.d. for 7 consecutive days, transgenic and nontransgenic mice): no toxicity was observed; Adverse side effects on any organ compared to vehicle controls [1, 3]: no obvious adverse side effects; Mortality during treatment [1, 3]: No mice died; Reduction of Aβ40 in the hippocampus ([2]; p<0.01): Statistically significant reductions; Reduction of Aβ38 in the hippocampus ([2]; p<0.05): Statistically significant reductions
2 | 103 to 105 | CC[C@@H](c1ccccc1)N(Cc1ccc(C(=O)OC)cc1)S(=O)(=O)c1ccc(F)c(F)c1 [Example 115, (S)-Methyl 4-((3,4-difluoro-N-(1-phenylpropyl)phenylsulfonamido)methyl)benzoate] | –
3 | 182 to 184 | C[C@H](O)[C@H](CO)N(Cc1ccc(C(=O)O)cc1)S(=O)(=O)c1ccc(Cl)cc1 [Example 118, 4-((4-Chloro-N-((2S,3S)-1,3-dihydroxybutan-2-yl)phenylsulfonamido)methyl)benzoic acid] | –
4 | 123 to 125 | CC[C@@H](c1ccc(C(F)(F)F)cc1)N(Cc1ccc(C(=O)OC)cc1)S(=O)(=O)c1ccc(Cl)cc1 [Example 122, (S)-Methyl 4-((4-chloro-N-(1-(4-(trifluoromethyl)phenyl)propyl)phenylsulfonamido)methyl)benzoate] | –
5 | 120 to 121 | CC[C@H](c1ccc(C(F)(F)F)cc1)N(Cc1ccc(C(=O)OC)cc1)S(=O)(=O)c1ccc(Cl)cc1 [Example 123, (R)-Methyl 4-((4-chloro-N-(1-(4-(trifluoromethyl)phenyl)propyl)phenylsulfonamido)methyl)benzoate] | –
6 | 87 to 89 | CC[C@@H](c1ccccc1)N(Cc1ccc(C(=O)OC)c(F)c1F)S(=O)(=O)c1ccc(Cl)cc1 [Example 124, (S)-Methyl 4-((4-chloro-N-(1-phenylpropyl)phenylsulfonamido)methyl)-2,3-difluorobenzoate] | –
7 | 101 to 103 | CC[C@@H](c1ccc(C(F)(F)F)cc1)N(Cc1ccc(C(=O)O)cc1)S(=O)(=O)c1ccc(Cl)cc1 [Example 125, (S)-4-((4-Chloro-N-(1-(4-(trifluoromethyl)phenyl)propyl)phenylsulfonamido)methyl)benzoic acid] | –
8 | 105 to 107 | CC[C@H](c1ccc(C(F)(F)F)cc1)N(Cc1ccc(C(=O)O)cc1)S(=O)(=O)c1ccc(Cl)cc1 [Example 126, (R)-4-((4-Chloro-N-(1-(4-(trifluoromethyl)phenyl)propyl)phenylsulfonamido)methyl)benzoic acid] | –
9 | 127 to 129 | CC[C@@H](c1ccccc1)N(Cc1ccc(C(=O)O)c(F)c1F)S(=O)(=O)c1ccc(Cl)cc1 [Example 127, (S)-4-((4-Chloro-N-(1-phenylpropyl)phenylsulfonamido)methyl)-2,3-difluorobenzoic acid] | –
10 | 112 to 114 | C[C@H](O)[C@H](CO)N(Cc1ccc(C#N)cc1F)S(=O)(=O)c1ccc(Cl)cc1 [Example 131, 4-Chloro-N-(4-cyano-2-fluorobenzyl)-N-((2S,3S)-1,3-dihydroxybutan-2-yl)-benzenesulfonamide] | –
11 | 124 to 126 | C[C@H](O)[C@H](CO)N(Cc1ccc(C#N)cc1)S(=O)(=O)c1ccc(Cl)cc1 [Example 132, 4-Chloro-N-(4-cyanobenzyl)-N-((2S,3S)-1,3-dihydroxybutan-2-yl)-benzene-sulfonamide] | –
12 | 60 to 62 | COC(=O)c1cc(CN([C@@H](CO)c2ccccc2)S(=O)(=O)c2ccc(Cl)cc2)ccc1OC [Example 133, (R)-Methyl 5-((4-chloro-N-(2-hydroxy-1-phenylethyl)phenylsulfonamido)methyl)-2-methoxybenzoate] | –
13 | 79 to 80 | COc1ccc(CN([C@@H](CO)c2ccccc2)S(=O)(=O)c2ccc(Cl)cc2)cc1C(=O)O [Example 134, (R)-5-((4-Chloro-N-(2-hydroxy-1-phenylethyl)phenylsulfonamido)methyl)-2-methoxybenzoic acid] | –
14 | 163 to 165 | C[C@@H](c1ccc(Cl)cc1)N(Cc1ccc(C(=O)O)cc1)S(=O)(=O)c1ccc(Cl)cc1 [Example 141, (S)-4-((4-Chloro-N-(1-(4-chlorophenyl)ethyl)phenylsulfonamido)methyl)benzoic acid] | –
15 | 67 to 69 | COC(=O)c1ccc(CN([C@@H](C)c2ccc(Cl)cc2)S(=O)(=O)c2ccc(Cl)cc2)cc1 [Example 141, (S)-Methyl 4-((4-chloro-N-(1-(4-chlorophenyl)ethyl)phenylsulfonamido)methyl)benzoate] | –
